Measured values taken from patent US4447434A, “Substituted dibenzodiazepinones” (Dr. Karl Thomae GmbH, priority 1982, dated 1984).
Like-named read-outs stand apart in the source and are kept apart here.

Key:
[1] = biological target: muscarinic receptors (cerebral cortex); assay: Binding to muscarinic receptors, cerebral cortex (displacement of 3H-N-methylscopolamine); set-up: species or system rat (male Sprague-Dawley); settings: cerebral cortex homogenate 1:3000; 0.3 n molar 3H-NMS; 30° C, 45 min, pH 7.4; read-out: Receptor binding tests IC50, Cortex
Protocol: (§1) 2. Studies of binding to muscarinic receptors: Determination of the IC50 value
(§2) The organ donors were male Sprague-Dawley rats with a body weight of from 180 to 220 g. After the heart, stomach and cerebral cortex had been removed, the remainder of the operation was carried out in ice-cold Hepes-HCl buffer (pH 7.4; 100 m molar NaCl, 10 m molar MgCl2). The smooth muscle of the fundus of the stomach was separated from the mucous membrane of the stomach and subjected to preliminary homogenization. The whole heart was cut up with scissors. All the organs were then homogenized in a Potter apparatus.
(§3) For the binding test, the homogenized organs were diluted as follows:
(§4) The homogenized organ preparations were incubated at a specific concentration of the radiolabelled compound and with a series of concentrations of the nonradioactive test substances in an Eppendorf centrifuge tube at 30° C. The duration of incubation was 45 minutes. 0.3 n molar ^3 H-N-methylscopolamine (^3 H-NMS) was used as the radiolabelled compound. After incubation had been brought to an end by centrifuging at 14000 g, the radioactivity in the pellet was determined. It represents the sum of the specific and nonspecific binding of ^3 H-NMS. The proportion of nonspecific binding was defined as the radioactivity which was bound in the presence of 1μ molar quinuclidinylbenzylate. Four measurements were taken in each case. The IC50 values of the non-labelled test substances were determined graphically. They represent the concentration of test substance at which the specific binding of ^3 H-NMS to the muscarinic receptors in the various organs was inhibited by 50%.

[2] = test system: oxotremorine-induced lesions in the mucous membrane of the stomach; assay: Oxotremorine test: antiulcerative effect (protection against lesions of the mucous membrane of the stomach); assay type: in vivo, rat (female albino, Crl:COBS-CD (SD) BR); settings: Rattus norvegicus, iv; for ED50: read-out: Oxotremorine Test, Antiulcerative effect ED50; for ED70: read-out: Oxotremorine Test, Antiulcerative effect ED70
Protocol: (§5) Oxotremorine, a specific agonist for muscarinic receptors, produces lesions in the mucous membrane of the stomach in rats and increases their secretion of saliva. This test method was chosen so that any selective activity of an antimuscarinic substance on the stomach could be identified.
(§6) 10 female albino rats (of the Crl:COBS-CD (SD) BR strain) with a body weight of from 120 to 150 g were used in each treatment group and were kept without food for 24 hours before the start of the test but given free access to drinking water.
(§7) In order to determine, in preliminary tests, the muscarinic effect of oxotremorine on each of the symptoms studied, a dosage/activity curve was drawn up with at least three dosages for each symptom.
(§8) When testing the antimuscarinic substances, the dosage of oxotremorine which triggered the symptom in question in 90 to 100% of the animals in the preliminary tests was used.
Lesions in mucous membrane of stomach: 0.62 mg/kg i.v.
(§9) Each antimuscarinic substance was administered intravenously in uniformly graduated doses 15 minutes before the oxotremorine was administered. Control groups were given corresponding quantities of the solvent and suspending agent instead of the test substance.
(§10) Immediately after the oxotremorine was administered, the animals were placed in a glass case for 15 minutes and observed.
(§11) The ED50 values were determined using the method described by LITCHFIELD and WILCOXON (J. Pharmacol. Exp. Ther. 96, 99, 1949).
The effects on lesions of the mucous membrane of the stomach were evaluated as follows:
The lesions of the gastric mucous membrane were produced by intravenous injection of 0.62 mg/kg of oxotremorine 30 minutes after the oral administration of 1 mg/kg of neostigmine (a cholinesterase inhibitor). 60 minutes after the administration of the neostigmine, the animals were killed, the stomachs were removed and opened and examined for the presence of any lesions in the mucous membrane. The protective effect of the test substances was expressed as the percentage inhibition (percentage of animals without lesions). The ED50 and ED70 values were determined using the method of LITCHFIELD and WILCOXON (see above).

[3] = biological target: T1, muscarinic receptors (heart) (Rattus norvegicus, UniProt P10980); assay: Binding to muscarinic receptors, whole heart (displacement of 3H-N-methylscopolamine); set-up: species or system rat (male Sprague-Dawley)
T1 construct: The whole heart was cut up with scissors; from tissue; host or cells: whole heart of male Sprague-Dawley rats, homogenate
T1 sequence (P10980 1-466): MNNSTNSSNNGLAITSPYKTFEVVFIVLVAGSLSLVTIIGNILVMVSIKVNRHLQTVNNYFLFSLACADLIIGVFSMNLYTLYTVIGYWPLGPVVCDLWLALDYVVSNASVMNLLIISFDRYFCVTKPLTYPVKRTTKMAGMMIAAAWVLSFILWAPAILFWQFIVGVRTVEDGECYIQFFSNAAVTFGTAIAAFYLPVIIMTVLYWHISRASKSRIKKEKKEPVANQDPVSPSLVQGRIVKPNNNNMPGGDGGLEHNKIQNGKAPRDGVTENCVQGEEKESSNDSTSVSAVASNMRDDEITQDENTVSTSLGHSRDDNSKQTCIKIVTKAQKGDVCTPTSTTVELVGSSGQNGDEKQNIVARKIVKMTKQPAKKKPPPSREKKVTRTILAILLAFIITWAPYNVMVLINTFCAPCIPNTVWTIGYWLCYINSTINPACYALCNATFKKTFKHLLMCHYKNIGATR
Protocol: as §1, §2, §3, §4

[4] = test system: oxotremorine-induced secretion of saliva; assay: Oxotremorine test: inhibition of salivation; assay type: in vivo, rat (female albino, Crl:COBS-CD (SD) BR); settings: Rattus norvegicus, iv, 0.25 h, read-out: Oxotremorine Test, Inhibition of salivation ED50
Protocol: as §5, §6, §7, §8
Secretion of saliva: 0.083 mg/kg i.v.
as §9, §10, §11

[5] = biological target: muscarinic receptors (smooth muscle fundus of stomach); assay: Binding to muscarinic receptors, smooth muscle of the fundus of the stomach (displacement of 3H-N-methylscopolamine); set-up: species or system rat (male Sprague-Dawley); settings: smooth muscle of fundus homogenate 1:100; 0.3 n molar 3H-NMS; 30° C, 45 min, pH 7.4; read-out: Receptor binding tests IC50, Smooth muscle fundus of stomach
Protocol: as §1, §2, §3
Smooth muscle of the fundus of the stomach: 1:100
as §4

[6] = Mydriasis (effect on the pupil size); settings: rat, in vivo, iv; pupil size observed for 10 minutes; double blind
Protocol: The effect of the test substances on the pupil size in rats was investigated as follows:
The substances were administered intravenously to groups of 10 animals in at least three uniformly graduated doses. […] The percentage of test animals in which mydriasis occurred was determined. The ED50 values were again determined using the method of LITCHFIELD and WILCOXON (see above).

[7] = 15 min before oxotremorine 0.62 mg/kg i.v., neostigmine 1 mg/kg oral
[8] = i.v., 15 min before oxotremorine 0.083 mg/kg i.v., double blind

SMILES | IC50 [1] | ED50 [2, 7] | ED70 [2, 7] | IC50 [3] | ED50 [4, 8] | IC50 [5] | ED50 at 10 min [6] | ED50 [2] | ED70 [2] | IC50 ([3]; whole heart homogenate 1:250, 0.3 n molar 3H-NMS, 30° C, 45 min, pH 7.4, read-out: Receptor binding tests IC50, Heart) | ED50 [4]
CN1CC=C(C(=O)N2c3ccccc3NC(=O)c3ccccc32)CC1 [Substance A, 5,10-dihydro-5-[(1-methyl-1,2,5,6-tetrahydro-4-pyridinyl)-carbonyl]-11H-dibenzo[b,e][1,4]diazepin-11-one] | 30 nM | 0.0031 mg/kg | 0.0065 mg/kg | 250 nM | 0.08 mg/kg | 100 nM | 0.0366 mg/kg | – | – | – | –
CN1CCC(CC(=O)N2c3ccccc3C(=O)Nc3cccc(Cl)c32)CC1 [Substance B, 6-chloro-5,10-dihydro-5-[(1-methyl-4-piperidinyl)acetyl]-11H-dibenzo[b,e][1,4]diazepin-11-one] | 28 nM | 0.0044 mg/kg | 0.0084 mg/kg | 200 nM | 0.23 mg/kg | 170 nM | 0.138 mg/kg | – | – | – | –
CN1[C@@H]2CC[C@H]1C[C@@H](CC(=O)N1c3ccccc3NC(=O)c3ccccc31)C2 [Substance C, endo-5,10-dihydro-5-[(8-methyl-8-azabicyclo[3,2,1]-oct-3-yl)acetyl]-11H-dibenzo[b,e][1,4]diazepin-11-one] | 15 nM | – | – | – | – | 200 nM | 0.054 mg/kg | 0.0011 mg/kg | 0.0038 mg/kg | 55 nM | 0.105 mg/kg
